Experimental data published in ChEMBL document CHEMBL3600370, “Synthesis and evaluation of novel prenylated chalcone derivatives as anti-leishmanial and anti-trypanosomal compounds” (Bioorg Med Chem Lett, 2015).

Assays:
Trypanosoma cruzi = test: Anti-trypanosomal activity against Trypanosoma cruzi Y epimastigotes assessed as parasite growth inhibition incubated for 72 hrs by MTT assay; format: functional, organism-based
Leishmania amazonensis [1] = test: Anti-leishmanial activity against Leishmania amazonensis MPRO/BR/1972/M1841-LV-79 promastigotes assessed as parasite growth inhibition incubated for 72 hrs by MTT assay; format: functional, organism-based; conditions: MPRO/BR/1972/M1841-LV-79, 72 h
[2] = Cytotoxicity against Swiss mouse peritoneal macrophages incubated for 24 hrs by MTT assay; conditions: Peritoneal macrophage cell
[3] = Selectivity index, ratio of EC50 for BALB/c mouse peritoneal macrophages to EC50 for Leishmania amazonensis MPRO/BR/1972/M1841-LV-79 promastigotes
Leishmania infantum [4] = test: Anti-leishmanial activity against Leishmania infantum MHOM/BR/72 promastigotes assessed as parasite growth inhibition incubated for 72 hrs by MTT assay; format: functional, organism-based; conditions: MHOM/BR/72, 72 h
[5] = Selectivity index, ratio of EC50 for BALB/c mouse peritoneal macrophages to EC50 for Leishmania infantum MHOM/BR/72 promastigotes
[6] = Selectivity index, ratio of EC50 for BALB/c mouse peritoneal macrophages to EC50 for Trypanosoma cruzi Y epimastigotes
Leishmania infantum [7] = test: Anti-leishmanial activity against Leishmania infantum MHOM/BR/72 amastigotes infected in BALB/c mouse peritoneal macrophages assessed as reduction in the infection index incubated for 24 hrs by Giemsa staining method; format: functional, organism-based; conditions: MHOM/BR/72, 24 h
[8] = Selectivity index, ratio of EC50 for BALB/c mouse peritoneal macrophages to EC50 for Leishmania infantum MHOM/BR/72 amastigotes
[9] = Selectivity index, ratio of EC50 for BALB/c mouse peritoneal macrophages to EC50 for Leishmania amazonensis MPRO/BR/1972/M1841-LV-79 amastigotes
Leishmania amazonensis [10] = test: Anti-leishmanial activity against Leishmania amazonensis MPRO/BR/1972/M1841-LV-79 amastigotes infected in BALB/c mouse peritoneal macrophages assessed as reduction in the infection index incubated for 24 hrs by Giemsa staining method; format: functional, organism-based; conditions: MPRO/BR/1972/M1841-LV-79, 24 h

O=C(/C=C/c1ccccc1O)c1ccccc1 gave an EC50 (Trypanosoma cruzi) of 75.9 µM, an EC50 (Leishmania amazonensis [1]) of 334 µM and an EC50 [2] of 143 µM. For the same compound, the “Ratio EC50” value [3] was 0.43, the EC50 (Leishmania infantum [4]) was 91.7 µM and the “Ratio EC50” value [5] was 1.56. For the same compound, the “Ratio EC50” value [6] was 1.88.

In the case of CC(C)=CCOc1ccccc1/C=C/C(=O)c1ccccc1, the EC50 (Leishmania infantum [7]) is reported as 10.4 µM, the “Ratio EC50” value [8] is reported as 10.69 and the EC50 (Trypanosoma cruzi) is reported as 21.6 µM. For the same compound, the “Ratio EC50” value [9] was 5.58, the EC50 (Leishmania amazonensis [1]) was 4.38 µM and the EC50 [2] was 111 µM. For the same compound, the EC50 (Leishmania amazonensis [10]) was 19.9 µM, the “Ratio EC50” value [3] was 25.41 and the EC50 (Leishmania infantum [4]) was 4.69 µM. The “Ratio EC50” value [5] was 23.73 and the “Ratio EC50” value [6] was 5.16.

In the case of CC(C)=CCC/C(C)=C/CC/C(C)=C/COc1ccccc1/C=C/C(=O)c1ccccc1, the EC50 (Leishmania infantum [7]) is reported as 2.24 µM, the “Ratio EC50” value [8] is reported as 62.79 and the EC50 (Trypanosoma cruzi) is reported as 69.4 µM. For the same compound, the “Ratio EC50” value [9] was 48.5, the EC50 (Leishmania amazonensis [1]) was 6.47 µM and the EC50 [2] was 141 µM. For the same compound, the EC50 (Leishmania amazonensis [10]) was 2.9 µM, the “Ratio EC50” value [3] was 21.74 and the EC50 (Leishmania infantum [4]) was 10.2 µM. The “Ratio EC50” value [5] was 13.78 and the “Ratio EC50” value [6] was 2.03.

For CC(C)=CCC/C(C)=C/COc1cccc(/C=C/C(=O)c2ccccc2)c1, the EC50 (Leishmania infantum [7]) was 63.9 µM, the “Ratio EC50” value [8] was 1.28 and the EC50 (Trypanosoma cruzi) was 26.2 µM. The “Ratio EC50” value [9] was 3.17, the EC50 (Leishmania amazonensis [1]) was 8.92 µM and the EC50 [2] was 81.9 µM. For the same compound, the EC50 (Leishmania amazonensis [10]) was 25.8 µM, the “Ratio EC50” value [3] was 9.18 and the EC50 (Leishmania infantum [4]) was 7.81 µM. The “Ratio EC50” value [5] was 10.49 and the “Ratio EC50” value [6] was 3.12.

In the case of CC(C)=CCC/C(C)=C/CC/C(C)=C/COc1cccc(/C=C/C(=O)c2ccccc2)c1, the EC50 (Leishmania infantum [7]) is reported as 32.5 µM, the “Ratio EC50” value [8] is reported as 1.69 and the EC50 (Trypanosoma cruzi) is reported as 23.8 µM. The “Ratio EC50” value [9] was 2.52, the EC50 (Leishmania amazonensis [1]) was 9.25 µM and the EC50 [2] was 55.1 µM. For the same compound, the EC50 (Leishmania amazonensis [10]) was 21.9 µM, the “Ratio EC50” value [3] was 6 and the EC50 (Leishmania infantum [4]) was 5.98 µM. For the same compound, the “Ratio EC50” value [5] was 9.22 and the “Ratio EC50” value [6] was 2.32.

In the case of O=C(/C=C/c1cccc(O)c1)c1ccccc1 [3-HYDROXY CHALCONE], the EC50 (Trypanosoma cruzi) is reported as 68.3 µM, the EC50 (Leishmania amazonensis [1]) is reported as 412 µM and the EC50 [2] is reported as 143 µM. The “Ratio EC50” value [3] was 0.35, the EC50 (Leishmania infantum [4]) was 185 µM and the “Ratio EC50” value [5] was 0.96. The “Ratio EC50” value [6] was 2.09.

With C[C@@H]1[C@H](O)[C@@H](C)/C=C/C=C/C=C/C=C/C=C/C=C/C=C/[C@H](O[C@@H]2O[C@H](C)[C@@H](O)[C@H](N)[C@@H]2O)C[C@@H]2O[C@](O)(C[C@@H](O)C[C@@H](O)[C@H](O)CC[C@@H](O)C[C@@H](O)CC(=O)O[C@H]1C)C[C@H](O)[C@H]2C(=O)O [AMPHOTERICIN B] the EC50 (Leishmania infantum [7]) was 2.98 µM, the “Ratio EC50” value [8] was 7.75 and the “Ratio EC50” value [9] was 4.7. The EC50 (Leishmania amazonensis [1]) was 3.22 µM, the EC50 [2] was 23.1 µM and the EC50 (Leishmania amazonensis [10]) was 4.92 µM. The “Ratio EC50” value [3] was 7.17, the EC50 (Leishmania infantum [4]) was 0.92 µM and the “Ratio EC50” value [5] was 25.11.

Compound O=C(Cn1ccnc1[N+](=O)[O-])NCc1ccccc1 [BENZNIDAZOLE] has an EC50 (Trypanosoma cruzi) of 4.07 µM.

With O=C(/C=C/c1ccccc1)c1ccccc1 [CHALCONE] the EC50 (Trypanosoma cruzi) was 103 µM, the EC50 (Leishmania amazonensis [1]) was 13.2 µM and the EC50 [2] was 9.5 µM. The “Ratio EC50” value [3] was 0.7, the EC50 (Leishmania infantum [4]) was 8.89 µM and the “Ratio EC50” value [5] was 1.06. The “Ratio EC50” value [6] was 0.09.

For N=C(N)c1ccc(OCCCCCOc2ccc(C(=N)N)cc2)cc1 [PENTAMIDINE], the EC50 (Leishmania infantum [7]) was 19.8 µM, the “Ratio EC50” value [8] was 1.81 and the “Ratio EC50” value [9] was 5.71. For the same compound, the EC50 (Leishmania amazonensis [1]) was 10.2 µM, the EC50 [2] was 35.7 µM and the EC50 (Leishmania amazonensis [10]) was 6.25 µM. For the same compound, the “Ratio EC50” value [3] was 3.5, the EC50 (Leishmania infantum [4]) was 67.7 µM and the “Ratio EC50” value [5] was 0.53.
